Assay results taken from patent publication US20200031785A1, “METHODS FOR TREATING CHRONIC PAIN AND OPIOID DEPENDENCE USING ADENYLYL CYCLASE INHIBITORS” (Purdue Research Foundation, priority 2017, published 2020).

How the values were obtained:
hAC1 = molecular target: T1, hAC1 (Homo sapiens, UniProt Q08828); assay: Cyclic AMP accumulation in HEK cells stably expressing AC1, stimulated with A23187 (HTRF); type: cell-based; conditions: HEK-AC1 cells; for inhibition at 30 µM: HEK293; for IC50: read-out: HEK-AC1 IC50
T1 construct: expressed in transfected cells
Experimental: The development and mechanistic characterization of AC1-selective small molecule inhibitors is believed to provide novel non-opioid weapons in the war on chronic pain. We identified our initial hits via screening 10,000 selected compounds from the Life Chemicals collection. The screen was carried out using HEK cells stably expressing AC1 (HEK-AC1) and cyclic AMP accumulation was stimulated using the Ca^2+ ionophore, A23187 to selectively activate AC1. Compounds with potential chemical liabilities and PAINs were removed from further evaluation (Baell and Holloway, J. Med. Chem. 2010, 53, 2719-2740).
(§1) Fresh powders of several robust inhibitors (>90% inhibition) were evaluated in multiple confirmation assays assessing the dose response relationship for inhibiting AC1 and AC8 activity. Confirmation assays used A23817 to selectively stimulate recombinant AC1 or AC8 in the HEK cell background (Cumbay and Watts (2001), J. Pharmacol Exp Ther 297:1201-1399). This approach takes advantage of one unique regulatory property of AC1 for the development of selective inhibitors. Both AC1 and AC8 are robustly activated by Ca^2+/CaM under a variety of conditions, whereas the effects of Ca^2+/CaM on AC3 are modest and conditional requiring activation by G proteins. Previous studies have identified unique Ca^2+/CaM binding domains as one possible site of interaction to achieve AC1 (vs. AC8) selectivity (Masada et al., 2012, Biochemistry 51:7917-7929).
(§2) The primary technology we employed to measure cAMP accumulation was a homogenous time-resolved fluorescence (HTRF) assay, the same technology utilized in the primary screen. […] This could be due to either 1) the chemical scaffolds are exquisitely selective toward the AC family of enzymes or 2) the library has not been screened against a sufficient number of targets. The answer is likely a combination of the two; nonetheless, the lack of biological data to date bodes well for these series and any potential off-target promiscuity.
(§3) Human embryonic kidney (HEK) cells stably expressing AC1, AC8, or AC1 with the MOR were cultured in Dulbecco's Modified Eagle Medium (Life Technologies, Grand Island, N.Y.) supplemented with 5% bovine calf serum (Hyclone, Logan, Utah), 5% fetal clone I (Hyclone), Antibiotic-Antimycotic (Life Technologies), and G418 (Invivogen, San Diego, Calif.) (HEK-AC1), or hygromycin B (Fisher Scientific, Pittsburgh, Pa.) (HEK-AC8), or G418 and puromycin (Sigma-Aldrich) (HEK-AC1/MOR). Chinese hamster ovary (CHO) cells expressing the MOR (CHO-MOR) in the PathHunter® β-Arrestin GPCR assay platform were purchased from DiscoveRx (Freemont, Calif.). Cells were grown in Ham's F12 media supplemented with 1 mM L-glutamine (Thermo Scientific, West Palm Beach, Fla.), 10% fetal bovine serum (Hyclone), 50 U/ml penicillin, 50 μg/ml streptomycin (Life Technologies), G418 and hygromycin B. Cells were grown and frozen as previously described (J. M. Conley, et al., J Vis Exp, e51218 (2014)).
(§4) Cyclic AMP accumulation was measured as previously described (Brust, et al., J. Pharmacol. Exp. Ther. 352, 480-493(2015)). Briefly, cryopreserved cells were thawed, resuspended in optiMEM (Life Technologies), and plated in white, flat bottom, low-volume, tissue culture-treated 384 well plates (PerkinElmer, Shelton, Conn.). Plates with cells were incubated in a 37° C. humidified incubator for 1 h. Inhibitors were added and plates were incubated at room temperature for 30 min followed by the addition of AC stimulants in the presence of 500 μM IBMX. Cells were incubated at room temperature for 1 h and cAMP accumulation was measured using Cisbio's cAMP kit (Cisbio Bioassays, Bedford, Mass.) according to the manufacturer's instructions.

hAC8 = molecular target: T2, hAC8 (Homo sapiens, UniProt P40145); assay: Cyclic AMP accumulation in HEK cells stably expressing AC8, stimulated with A23187 (HTRF); type: cell-based; conditions: HEK-AC8 cells; for inhibition at 30 µM: HEK293; for IC50: read-out: HEK-AC8 IC50
T2 construct: expressed in transfected cells
Experimental: as §1, §2, §3, §4

T1 sequence (Q08828 whole entry): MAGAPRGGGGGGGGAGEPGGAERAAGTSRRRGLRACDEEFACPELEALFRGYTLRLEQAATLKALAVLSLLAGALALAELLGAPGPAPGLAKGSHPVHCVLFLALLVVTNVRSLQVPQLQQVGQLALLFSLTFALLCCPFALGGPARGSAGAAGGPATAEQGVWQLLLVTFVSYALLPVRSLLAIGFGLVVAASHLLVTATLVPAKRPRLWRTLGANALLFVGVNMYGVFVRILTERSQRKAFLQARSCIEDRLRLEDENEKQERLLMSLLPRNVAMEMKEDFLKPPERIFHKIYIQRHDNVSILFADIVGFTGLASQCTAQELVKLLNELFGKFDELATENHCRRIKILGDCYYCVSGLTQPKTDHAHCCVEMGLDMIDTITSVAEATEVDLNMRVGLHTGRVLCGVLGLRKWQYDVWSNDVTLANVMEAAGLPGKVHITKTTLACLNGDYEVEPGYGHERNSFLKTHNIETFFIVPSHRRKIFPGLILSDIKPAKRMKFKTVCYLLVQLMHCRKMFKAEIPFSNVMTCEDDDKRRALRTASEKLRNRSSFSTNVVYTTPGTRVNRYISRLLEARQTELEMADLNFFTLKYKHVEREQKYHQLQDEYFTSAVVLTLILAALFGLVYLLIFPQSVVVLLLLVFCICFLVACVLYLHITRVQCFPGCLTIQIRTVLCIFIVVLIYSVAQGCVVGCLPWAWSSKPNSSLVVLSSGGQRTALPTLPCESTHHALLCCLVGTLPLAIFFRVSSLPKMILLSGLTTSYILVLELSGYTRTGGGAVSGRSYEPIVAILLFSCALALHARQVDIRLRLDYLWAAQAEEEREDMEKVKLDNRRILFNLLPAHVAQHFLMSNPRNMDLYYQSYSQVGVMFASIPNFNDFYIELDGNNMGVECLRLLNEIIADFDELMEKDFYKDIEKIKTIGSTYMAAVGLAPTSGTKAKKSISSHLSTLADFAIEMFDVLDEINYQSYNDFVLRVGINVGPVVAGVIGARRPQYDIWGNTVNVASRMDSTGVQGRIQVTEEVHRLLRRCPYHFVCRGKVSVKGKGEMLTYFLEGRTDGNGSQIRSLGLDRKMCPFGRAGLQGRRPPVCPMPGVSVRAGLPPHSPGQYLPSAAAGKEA
T2 sequence (P40145 whole entry): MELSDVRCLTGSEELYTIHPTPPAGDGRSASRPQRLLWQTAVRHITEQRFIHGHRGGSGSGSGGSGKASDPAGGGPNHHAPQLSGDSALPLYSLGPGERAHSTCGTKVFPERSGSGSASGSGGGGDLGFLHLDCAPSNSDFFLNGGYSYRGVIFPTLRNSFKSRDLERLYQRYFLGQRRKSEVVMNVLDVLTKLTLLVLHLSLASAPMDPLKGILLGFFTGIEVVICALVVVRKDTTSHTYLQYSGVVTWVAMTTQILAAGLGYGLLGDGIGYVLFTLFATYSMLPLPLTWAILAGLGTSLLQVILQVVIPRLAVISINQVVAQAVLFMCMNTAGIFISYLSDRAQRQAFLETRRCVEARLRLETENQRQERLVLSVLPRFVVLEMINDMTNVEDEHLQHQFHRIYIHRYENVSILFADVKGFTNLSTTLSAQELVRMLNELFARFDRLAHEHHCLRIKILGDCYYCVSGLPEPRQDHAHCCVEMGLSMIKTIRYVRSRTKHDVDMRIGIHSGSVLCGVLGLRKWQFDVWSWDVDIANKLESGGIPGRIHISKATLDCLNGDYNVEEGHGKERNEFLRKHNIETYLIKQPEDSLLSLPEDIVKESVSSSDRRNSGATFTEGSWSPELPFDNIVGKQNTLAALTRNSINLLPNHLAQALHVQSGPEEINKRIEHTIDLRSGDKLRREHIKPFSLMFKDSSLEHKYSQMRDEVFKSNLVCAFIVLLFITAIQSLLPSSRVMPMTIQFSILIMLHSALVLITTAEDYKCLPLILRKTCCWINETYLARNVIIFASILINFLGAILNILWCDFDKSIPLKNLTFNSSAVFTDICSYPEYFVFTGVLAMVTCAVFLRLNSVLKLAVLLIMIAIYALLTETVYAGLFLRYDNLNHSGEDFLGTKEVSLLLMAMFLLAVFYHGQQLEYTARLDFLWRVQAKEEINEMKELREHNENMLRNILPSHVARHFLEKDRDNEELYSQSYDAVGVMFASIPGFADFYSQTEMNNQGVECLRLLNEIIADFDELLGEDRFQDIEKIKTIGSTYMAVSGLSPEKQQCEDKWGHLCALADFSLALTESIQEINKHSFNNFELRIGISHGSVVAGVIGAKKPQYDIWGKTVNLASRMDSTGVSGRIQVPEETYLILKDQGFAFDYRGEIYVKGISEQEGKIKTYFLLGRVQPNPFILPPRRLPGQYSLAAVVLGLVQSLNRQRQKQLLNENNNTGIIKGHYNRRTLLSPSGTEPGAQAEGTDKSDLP

inhibition at 30 µM (hAC1) [%] | IC50 (hAC1) [µM] | inhibition at 30 µM (hAC8) [%] | IC50 (hAC8) [µM] | SMILES
98 ± 1 | 2.3 ± 0.4 | 84 ± 3 | 7 ± 1 | O=C(Nc1nnc(-c2ccc(F)cc2)o1)c1cccc(-c2ccccc2)c1 [AC10064, N-(5-(4-fluorophenyl)-1,3,4-oxadiazol-2-yl)-[1,1′-biphenyl]-3-carboxamide]
85 ± 3 | 9.4 ± 1 | 79 ± 6 | 10 ± 0.4 | COc1cc(C(=O)Nc2nnc(-c3ccc4c(c3)CCCC4)o2)cc(C(F)(F)F)c1 [AC10074, 3-methoxy-N-(5-(5,6,7,8-tetrahydronaphthalen-2-yl)-1,3,4-oxadiazol-2-yl)-5-(trifluoromethyl)benzamide]
76 ± 1 | 8.9 ± 1 | 11 ± 9 | – | O=C(Nc1nnc(-c2ccc(F)cc2)o1)c1ccc(Cl)cc1 [AC10054, 4-chloro-N-(5-(4-fluorophenyl)-1,3,4-oxadiazol-2-yl)benzamide]
90 ± 2 | 4.8 ± 1 | 79 ± 11 | 9 ± 1 | COc1cc(C(=O)Nc2nnc(C3CCCCC3)o2)cc(C(F)(F)F)c1 [AC10070, N-(5-cyclohexyl-1,3,4-oxadiazol-2-yl)-3-methoxy-5-(trifluoromethyl)benzamide]
99 ± 1 | 1.4 ± 0.2 | 92 ± 1 | 1.4 ± 0.4 | O=C(Nc1nnc(C2CCCCC2)o1)c1cccc(-c2ccccc2)c1 [AC10063, N-(5-cyclohexyl-1,3,4-oxadiazol-2-yl)-[1,1′-biphenyl]-3-carboxamide]
74 ± 3 | 12.8 ± 1 | 7 ± 4 | – | O=C(Nc1nnc(C2CCCCC2)o1)c1ccc(F)cc1 [AC10053, N-(5-cyclohexyl-1,3,4-oxadiazol-2-yl)-4-fluorobenzamide]
64 ± 8 | 26 ± 11 | 65 ± 12 | 13 ± 2 | Cc1ccc(C(=O)Nc2nnc(-c3ccc4c(c3)CCCC4)o2)cc1C(F)(F)F [AC10073, 4-methyl-N-(5-(5,6,7,8-tetrahydronaphthalen-2-yl)-1,3,4-oxadiazol-2-yl)-3-(trifluoromethyl)benzamide]
98 ± 1 | 5.9 ± 1 | 74 ± 8 | 22 ± 4 | O=C(Nc1nnc(-c2ccc3c(c2)CCCC3)o1)c1ccc(F)cc1 [AC10056, 4-fluoro-N-(5-(5,6,7,8-tetrahydronaphthalen-2-yl)-1,3,4-oxadiazol-2-yl)benzamide]
79 ± 8 | 10.5 ± 2 | 11 ± 3 | – | O=C(Nc1nnc(C2CCCCC2)o1)c1cccc(F)c1 [AC10047, N-(5-cyclohexyl-1,3,4-oxadiazol-2-yl)-3-fluorobenzamide]

Continued, compound first:

SMILES | inhibition at 30 µM (hAC1) [%] | IC50 (hAC1) [µM] | inhibition at 30 µM (hAC8) [%] | IC50 (hAC8) [µM]
Cc1ccc(C(=O)Nc2nnc(-c3ccc4c(c3)OCCO4)o2)cc1C [AC10035, N-(5-(2,3-dihydrobenzo[b][1,4]dioxin-6-yl)-1,3,4-oxadiazol-2-yl)-3,4-dimethylbenzamide] | 100 ± 1 | 5.3 ± 0.4 | 61 ± 1 | 14 ± 3
O=C(Nc1nnc(-c2cccs2)o1)c1ccc(Br)cc1 [AC10009, 4-Bromo-N-(5-(thiophen-2-yl)-1,3,4-oxadiazol-2-yl)benzamide] | 81 ± 1 | 7.7 ± 1 | 41 ± 9 | 55 ± 20
CSc1cccc(C(=O)Nc2nnc(-c3cccs3)o2)c1 [AC10012, 3-(methylthio)-N-(5-(thiophen-2-yl)-1,3,4-oxadiazol-2-yl)benzamide] | 84 ± 5 | 11 ± 2 | 34 ± 1 | 66 ± 2
O=C(Nc1nnc(-c2ccc3c(c2)OCCO3)o1)c1ccccc1 [AC10001, N-(5-(2,3-dihydrobenzo[b][1,4]dioxin-6-yl)-1,3,4-oxadiazol-2-yl)benzamide] | 60 ± 3 | 31 ± 3 | 24 ± 7 | 102 ± 26
Cc1ccc(C(=O)Nc2nnc(-c3ccc(F)cc3)o2)cc1C [AC10030, N-(5-(4-fluorophenyl)-1,3,4-oxadiazol-2-yl)-3,4-dimethylbenzamide] | 93 ± 4 | 6.5 ± 1 | 42 ± 4 | 46 ± 7
O=C(Nc1nnc(-c2ccc3c(c2)CCCC3)o1)c1ccccc1 [AC10002, N-(5-(5,6,7,8-tetrahydronaphthalen-2-yl)-1,3,4-oxadiazol-2-yl)benzamide] | 100 ± 1 | 3.4 ± 1 | 80 ± 6 | 19.1 ± 5
O=C(Nc1nnc(-c2ccc3c(c2)OCCO3)o1)c1cccc(C(F)(F)F)c1 [AC10023, N-(5-(2,3-dihydrobenzo[b][1,4]dioxin-6-yl)-1,3,4-oxadiazol-2-yl)-3-(trifluoromethyl)benzamide] | 100 ± 0.2 | 5.1 ± 0.7 | 60 ± 8 | 32 ± 12
CC(C)Oc1ccc(C(=O)Nc2nnc(-c3cccs3)o2)cc1 [AC10017, 4-isopropoxy-N-(5-(thiophen-2-yl)-1,3,4-oxadiazol-2-yl)benzamide] | 84 ± 5 | 10.7 ± 2 | 35 ± 4 | 83 ± 22
O=C(Nc1nnc(-c2ccc3c(c2)OCCO3)o1)c1ccc(Br)cc1 [AC10015, 4-bromo-N-(5-(2,3-dihydrobenzo[b][1,4]dioxin-6-yl)-1,3,4-oxadiazol-2-yl)benzamide] | 101 ± 0.4 | 3.4 ± 0.6 | 68 ± 0.5 | 23 ± 3
COc1cccc(C(=O)Nc2nnc(-c3ccc(F)cc3)o2)c1 [AC10034, N-(5-(4-fluorophenyl)-1,3,4-oxadiazol-2-yl)-3-methoxybenzamide] | 79 ± 9 | 15 ± 4 | 23 ± 5 | 101 ± 14
CCc1ccc(C(=O)Nc2nnc(C3CCCCC3)o2)cc1 [AC10045, N-(5-cyclohexyl-1,3,4-oxadiazol-2-yl)-4-ethylbenzamide] | 91 ± 4 | 7.3 ± 3 | 44 ± 7 | 71 ± 14
O=C(Nc1nnc(-c2ccc(F)cc2)o1)c1ccc(S(=O)(=O)N2CCCCC2)cc1 [AC10036, N-(5-(4-fluorophenyl)-1,3,4-oxadiazol-2-yl)-4-(piperidin-1-ylsulfonyl)benzamide] | 83 ± 6 | – | 38 ± 7 | 39 ± 16
O=C(Nc1nnc(-c2ccc(F)cc2)o1)c1ccc(Br)cc1 [AC10008, 4-bromo-N-(5-(4-fluorophenyl)-1,3,4-oxadiazol-2-yl)benzamide] | 78 ± 3 | 10 ± 1 | 33 ± 3 | 71 ± 18
O=C(Nc1nnc(C2CCCCC2)o1)c1ccc(Br)cc1 [AC10007, 4-bromo-N-(5-cyclohexyl-1,3,4-oxadiazol-2-yl)benzamide] | 82 ± 7 | 8.6 ± 3 | 71 ± 11 | 25 ± 8
O=C(Nc1nnc(C2CCCCC2)o1)c1cccc(C(F)(F)F)c1 [AC10021, N-(5-cyclohexyl-1,3,4-oxadiazol-2-yl)-3-(trifluoromethyl)benzamide] | 99 ± 1 | 6 ± 0.6 | 62 ± 8 | 33 ± 8
Cc1ccc(C(=O)Nc2nnc(-c3ccc4c(c3)OCCO4)o2)cc1 [AC10029, N-(5-(2,3-dihydrobenzo[b][1,4]dioxin-6-yl)-1,3,4-oxadiazol-2-yl)-4-methylbenzamide] | 86 ± 11 | 11.5 ± 4 | 25 ± 6 | 83 ± 47
